Columns and labels:
DERATM = molecular target: T1, DERATM (Thermotoga maritima, UniProt Q9X1P5); assay: steady-state kinetics, coupled GDH/TPI assay, NADH at […] nm; format: biochemical; settings: retro-aldol cleavage; 25 °C
T1 construct: gene deoC; synthetic deoC gene in pET21a, C-terminal 6xHis tag; E. coli BL21(DE3); NiNTA; dimer
T1 sequence (Q9X1P5 1-248): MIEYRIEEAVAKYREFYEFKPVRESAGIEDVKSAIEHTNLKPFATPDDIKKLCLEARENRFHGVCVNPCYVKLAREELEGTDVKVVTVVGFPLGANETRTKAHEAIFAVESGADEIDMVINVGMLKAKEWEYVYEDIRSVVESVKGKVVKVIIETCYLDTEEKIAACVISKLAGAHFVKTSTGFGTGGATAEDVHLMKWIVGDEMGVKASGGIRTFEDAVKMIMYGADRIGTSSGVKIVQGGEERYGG

DERASH = molecular target: T2, DERASH (Shewanella halifaxensis, UniProt B0TQ91); assay: as above; format: biochemical; settings: retro-aldol cleavage; 25 °C
T2 construct: gene deoC; deoC isolated from genomic DNA; E. coli BL21(DE3); NiNTA purification; dimer
T2 sequence (B0TQ91 whole entry): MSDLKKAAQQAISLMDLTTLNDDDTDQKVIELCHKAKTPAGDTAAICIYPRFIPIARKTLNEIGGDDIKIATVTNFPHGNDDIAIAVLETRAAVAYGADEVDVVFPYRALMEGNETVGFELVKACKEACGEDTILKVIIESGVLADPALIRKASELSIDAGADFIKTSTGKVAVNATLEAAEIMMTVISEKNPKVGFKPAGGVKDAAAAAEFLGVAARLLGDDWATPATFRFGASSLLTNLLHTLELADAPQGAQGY

DERAPA = molecular target: T3, DERAPA (Pyrobaculum aerophilum, UniProt Q8ZXK7); assay: as above; format: biochemical; settings: retro-aldol cleavage; 25 °C
T3 construct: gene deoC; synthetic deoC gene in pET21a, C-terminal 6xHis tag; E. coli BL21(DE3); NiNTA; dimer
T3 sequence (Q8ZXK7 1-226): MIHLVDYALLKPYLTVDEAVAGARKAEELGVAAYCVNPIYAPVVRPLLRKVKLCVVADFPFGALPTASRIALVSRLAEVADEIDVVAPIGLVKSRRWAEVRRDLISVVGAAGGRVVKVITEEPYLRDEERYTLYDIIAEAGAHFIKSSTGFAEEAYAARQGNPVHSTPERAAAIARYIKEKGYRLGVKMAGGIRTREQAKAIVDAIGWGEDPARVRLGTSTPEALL

DERACP = molecular target: T4, DERACP (Colwellia psychrerythraea, UniProt Q483R4); assay: as above; format: biochemical; settings: retro-aldol cleavage; 25 °C
T4 construct: gene deoC; synthetic deoC gene in pET21a, C-terminal 6xHis tag; E. coli BL21(DE3); NiNTA; dimer
T4 sequence (Q483R4 1-257): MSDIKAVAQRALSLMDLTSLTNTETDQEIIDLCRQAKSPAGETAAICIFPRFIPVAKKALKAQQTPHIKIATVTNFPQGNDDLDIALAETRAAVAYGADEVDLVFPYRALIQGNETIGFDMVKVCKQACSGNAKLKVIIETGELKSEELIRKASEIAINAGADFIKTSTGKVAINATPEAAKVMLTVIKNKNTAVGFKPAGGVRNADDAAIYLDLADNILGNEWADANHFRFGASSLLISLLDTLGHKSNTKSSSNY

DERAEC = molecular target: T5, DERAEC (Escherichia coli, UniProt P0A6L0); assay: as above; format: biochemical; settings: retro-aldol cleavage; 25 °C
T5 construct: gene deoC; deoC isolated previously; E. coli BL21(DE3); NiNTA purification; dimer
T5 sequence (P0A6L0 1-259): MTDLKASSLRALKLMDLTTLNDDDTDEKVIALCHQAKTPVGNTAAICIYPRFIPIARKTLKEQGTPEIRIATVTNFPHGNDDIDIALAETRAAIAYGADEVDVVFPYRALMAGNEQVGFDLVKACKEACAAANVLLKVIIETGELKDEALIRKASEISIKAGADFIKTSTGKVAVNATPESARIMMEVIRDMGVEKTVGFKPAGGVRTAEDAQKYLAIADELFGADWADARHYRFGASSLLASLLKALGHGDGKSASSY

[1] = molecular target: the molecule itself; assay: crystal structure; sitting-drop vapour diffusion at 20 °C; data at 100 K; DERACP tetragonal (P4(1)2(1)2, two chains per asymmetric unit) and hexagonal (P6(1)22, four chains) forms, DERASH (C2, four chains)
[2] = molecular target: the molecule itself; assay: SEC; Superdex 200 10/300 GL, 100 mM KPi, 150 mM NaCl (pH 7); 1-5 mg protein loaded; calibrated with five protein standards between 12.5 and 200 kDa; hydrodynamic size
[3] = molecular target: the molecule itself; assay: cross-linking; engineered intermolecular disulfide (A95C) across the dimer interface; oxidised against reduced mutant on SDS-PAGE under non-reducing conditions

Q: Which results are given for O=P(O)(O)OC[C@H]1OC(O)C[C@@H]1O (stereo partly drawn) [2-deoxy-D-ribose-5-phosphate]?
A: KM (DERATM): Both KM and kcat values decrease with increasing optimal growth temperature of the organism; KM (DERASH): Both KM and kcat values decrease with increasing optimal growth temperature of the organism; KM (DERAPA): Both KM and kcat values decrease with increasing optimal growth temperature of the organism; KM (DERACP): Both KM and kcat values decrease with increasing optimal growth temperature of the organism; KM (DERAEC): Both KM and kcat values decrease with increasing optimal growth temperature of the organism

B1: 2-deoxy-D-ribose-5-phosphate aldolase (DERA) from Colwellia psychrerythraea, wild type (enzyme, UniProt Q483R4 1-257, looked up)
chain: MSDIKAVAQRALSLMDLTSLTNTETDQEIIDLCRQAKSPAGETAAICIFPRFIPVAKKALKAQQTPHIKIATVTNFPQGNDDLDIALAETRAAVAYGADEVDLVFPYRALIQGNETIGFDMVKVCKQACSGNAKLKVIIETGELKSEELIRKASEIAINAGADFIKTSTGKVAINATPEAAKVMLTVIKNKNTAVGFKPAGGVRNADDAAIYLDLADNILGNEWADANHFRFGASSLLISLLDTLGHKSNTKSSSNY
notes: 2-deoxy-D-ribose-5-phosphate aldolase (DERA, deoC gene) of Colwellia psychrerythraea; gene synthesised by GenScript, in pET21a; also called DERACP; psychrophilic DERA; source: E. coli BL21(DE3), purified (Ni-NTA, SEC)
Q: How did the “stoichiometry N” value [1] turn out when B1 was run?
A: 2

B2: 2-deoxy-D-ribose-5-phosphate aldolase (DERA) from Thermotoga maritima, wild type (enzyme)
chain: MIEYRIEEAVAKYREFYEFKPVRESAGIEDVKSAIEHTNLKPFATPDDIKKLCLEARENRFHGVCVNPCYVKLAREELEGTDVKVVTVVGFPLGANETRTKAHEAIFAVESGADEIDMVINVGMLKAKEWEYVYEDIRSVVESVKGKVVKVIIETCYLDTEEKIAACVISKLAGAHFVKTSTGFGTGGATAEDVHLMKWIVGDEMGVKASGGIRTFEDAVKMIMYGADRIGTSSGVKIVQGGEERYGG
notes: 2-deoxy-D-ribose-5-phosphate aldolase (DERA, deoC gene) of Thermotoga maritima; gene synthesised by GenScript, in pET21a; also called DERATM; hyperthermophilic DERA; source: E. coli BL21(DE3), purified (Ni-NTA)
Q: For B2, which “stoichiometry N” value [2] is on record?
A: 2

B3: A95C mutant of DERA from Escherichia coli (enzyme)
chain: MTDLKASSLRALKLMDLTTLNDDDTDEKVIALCHQAKTPVGNTAAICIYPRFIPIARKTLKEQGTPEIRIATVTNFPHGNDDIDIALAETRAAICYGADEVDVVFPYRALMAGNEQVGFDLVKACKEACAAANVLLKVIIETGELKDEALIRKASEISIKAGADFIKTSTGKVAVNATPESARIMMEVIRDMGVEKTVGFKPAGGVRTAEDAQKYLAIADELFGADWADARHYRFGASSLLASLLKALGHGDGKSASSY
modifications: intermolecular disulfide bridge C95-C95 in the oxidised form
notes: DERA (deoC gene) of Escherichia coli with the mutation A95C; also called DERAEC A95C; source: E. coli BL21(DE3), purified (Ni-NTA)
Q: Does B3 bind [3]?
A: binds

B4: 2-deoxy-D-ribose-5-phosphate aldolase (DERA) from Pyrobaculum aerophilum, wild type (enzyme)
chain: MIHLVDYALLKPYLTVDEAVAGARKAEELGVAAYCVNPIYAPVVRPLLRKVKLCVVADFPFGALPTASRIALVSRLAEVADEIDVVAPIGLVKSRRWAEVRRDLISVVGAAGGRVVKVITEEPYLRDEERYTLYDIIAEAGAHFIKSSTGFAEEAYAARQGNPVHSTPERAAAIARYIKEKGYRLGVKMAGGIRTREQAKAIVDAIGWGEDPARVRLGTSTPEALL
notes: 2-deoxy-D-ribose-5-phosphate aldolase (DERA, deoC gene) of Pyrobaculum aerophilum; gene synthesised by GenScript, in pET21a; also called DERAPA; hyperthermophilic DERA; source: E. coli BL21(DE3), purified (Ni-NTA)
Q: Which “stoichiometry N” value [2] does the source give for B4 here?
A: 2

— publication PMC4725968 (Scientific Reports, 2016)
